Assay results from patent US20220054493A1, “INHIBITORS OF NGAL PROTEIN” (INSERM (INSTITUT NATIONAL DE LA SANTÉ ET DE LA RECHERCHE …, priority 2019, published 2022).

Experiments:
NGAL [1] = molecular target: T1, NGAL (Homo sapiens, UniProt P80188); test: NGAL-induced IL6 secretion in human cardiac fibroblasts (ELISA); assay type: cell-based; conditions: NGAL 10 ng/ml, FIGS. 1 and 2 panel A
T1 construct: purchased R&D Systems
Method: (§1) Cell Culture Human cardiac fibroblasts (primary culture) were obtained from Promocell and maintained in medium (Fibroblast Media 3). Cells were cultured according to the manufacturer's instructions and used between passages 5 and 7. Cells were stimulated with aldosterone (10^-8 M, Sigma) or recombinant hNGAL (500 ng/mL, R&D Systems) for 24 h for protein analysis. Mouse kidney fibroblasts (MKF), were isolated from Wild Type (WT) mice. Briefly, mice 7 to 8 weeks were sacrificed by cervical dislocation and kidneys were cleaned and rinsed in cold DPBS (Dulbecco's Phosphate-Buffered Saline). The renal cortex was minced and incubated in Dulbecco's modified eagle medium/Nutrient mixture F-12 (DMEM/F12, Sigma) containing 1 mg/mL collagenase A (Roche) during 25 minutes at 37° C. The digestion was inactivated by adding culture medium (DMEM/F12+10% FBS) then the cell suspension was passed through a 100-μm cell strainer. After centrifugation, the pellet (containing MKF) was diluted with culture medium then plated in 75 cm^2 culture flask. After 24 hours MKF were washed with DPBS before replacement of fresh culture medium. Thereafter, culture medium was changed every 48 hours. Once 70-80% confluent, MKF were trypsinized and plated in 12 or 6-well plates. For experimental use, MKF were starved with culture medium containing only 3% FBS. MKF were treated with mNGAL (500 ng/mL, R&D Systems) for 24 h for gene expression analysis.
(§2) NGAL, IL6 and collagen type I concentrations were measured in cardiac tissue and cell supernatants, respectively, by ELISA according to the manufacturer's instructions (R&D Systems).
The inhibitory activity of the compounds was evaluated on the NGAL-induced IL6 secretion (NGAL 10 ng/ml) in human cardiac fibroblasts.
Inhibitory activities of 23 second generation compounds derived from GPZ614741 and GPZ058225 were evaluated on the NGAL-induced IL6 secretion (NGAL 10 ng/ml) in human cardiac fibroblasts.

NGAL [2] = molecular target: T1, NGAL; test: NGAL-induced Col 1 secretion in human cardiac fibroblasts (ELISA); assay type: cell-based; conditions: FIGS. 1 and 2 panel B
Method: as §1, with “After 24 hours MKF were washed with DPBS before replacement of fresh culture medium. Thereafter, culture medium was changed every 48 hours. Once 70-80% confluent, MKF were trypsinized and plated in 12 or 6-well plates. For experimental use, MKF were starved with culture medium containing only 3% FBS. MKF were treated with mNGAL (500 ng/mL, R&D Systems) for 24 h for gene expression analysis.” left out
as §2
(§3) The inhibitory activity of the compounds was evaluated on the NGAL-induced IL6 secretion (NGAL 10 ng/ml) in human cardiac fibroblasts. […]

[3] = system: isolated hepatocytes from swiss mice; test: Hepatotoxicity, MTT colorimetric assay; assay type: cell-based
Method: (§4) Two specific toxicity assays have been performed to assess hepatoxicity and cardiotoxicity. Hepatotoxicity was evaluated in isolated hepatocytes from swiss mice and determined by the MTT colorimetric assay. Cardiotoxicity was evaluated using the commercially available Predictor hERG fluorescence polarization kit (Thermo Fisher Scientific). Several ADME assays have been carried out on the compounds generated throughout the project. The following experiments were undertaken: Stability in human microsomes, binding to human plasma protein, and CYP3A4 inhibition assay (Vivid CYP3A4 assay, Thermo Fisher Scientific). Physico-chemical properties were also assessed such as aqueous solubility and chemical stability.

NGAL [4] = molecular target: T1, NGAL; test: NGAL-induced profibrotic marker synthesis in human cardiac fibroblasts (western blot); assay type: cell-based; conditions: FIGS. 1 and 2 panel C
Method: Cell Culture Human cardiac fibroblasts (primary culture) were obtained from Promocell and maintained in medium (Fibroblast Media 3). Cells were cultured according to the manufacturer's instructions and used between passages 5 and 7. Cells were stimulated with aldosterone (10^-8 M, Sigma) or recombinant hNGAL (500 ng/mL, R&D Systems) for 24 h for protein analysis. Mouse kidney fibroblasts (MKF), were isolated from Wild Type (WT) mice. Briefly, mice 7 to 8 weeks were sacrificed by cervical dislocation and kidneys were cleaned and rinsed in cold DPBS (Dulbecco's Phosphate-Buffered Saline). The renal cortex was minced and incubated in Dulbecco's modified eagle medium/Nutrient mixture F-12 (DMEM/F12, Sigma) containing 1 mg/mL collagenase A (Roche) during 25 minutes at 37° C. […]
Total protein aliquots of 20 μg were prepared from cardiac homogenates and electrophoresed on SDS polyacrylamide gels and transferred to Hybond-c Extra nitrocellulose membranes (Amersham Biosciences). […] After densitometric analyses, optical density values were expressed as arbitrary units. Results are expressed as an n-fold increase over the values of the control group in densitometric arbitrary units.
as §3

Chemical stability = assay type: physicochemical
Method: as §4

[5] = system: Myocardial Infarction Model; test: Profibrotic, IL6 and inflammatory target tissue content in the myocardial infarction model; assay type: in vivo, mice; conditions: MI model, 100 mg/kg/day in food admix, three months
Method: Total protein aliquots of 20 μg were prepared from cardiac homogenates and electrophoresed on SDS polyacrylamide gels and transferred to Hybond-c Extra nitrocellulose membranes (Amersham Biosciences). Membranes were incubated with primary antibodies for: NGAL (Abcam; dilution 1:500), Collagen type III (Santa Cruz; dilution 1:500), a-SMA (Sigma; dilution 1:1000), CTGF Abcam; dilution 1:500), GDF-15 (Abcam; dilution 1:500), fibronectin (Millipore, 1:500), Galectin-3 (Thermo, 1:1000), Cardiotrophin-1 (Abcam, 1:500), osteopontin (Santa Cruz, 1:1000), cd3 (Abcam, 1:500), cd68 (Abcam, 1:500), cd80 (Santa Cruz, 1:500) and β-actin (Sigma; dilution 1:1000) as a loading control. […] After densitometric analyses, optical density values were expressed as arbitrary units. Results are expressed as an n-fold increase over the values of the control group in densitometric arbitrary units. NGAL, IL6 and collagen type I concentrations were measured in cardiac tissue and cell supernatants, respectively, by ELISA according to the manufacturer's instructions (R&D Systems).

human plasma protein = test: Binding to human plasma protein; assay type: in vitro ADME
Method: as §4

[6] = Binding to human plasma protein; assay type: in vitro ADME; conditions: human, human plasma protein; read-out: hPPB (converted)
Method: as §4

T1 sequence (P80188 21-198): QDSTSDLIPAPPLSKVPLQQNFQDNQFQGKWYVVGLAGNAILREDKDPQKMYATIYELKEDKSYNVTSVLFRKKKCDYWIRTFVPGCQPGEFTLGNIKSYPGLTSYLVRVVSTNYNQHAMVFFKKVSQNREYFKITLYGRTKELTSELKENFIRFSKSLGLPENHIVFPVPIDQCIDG

NGAL-induced IL6 secretion (NGAL [1]): inhibited
Col 1 secretion (NGAL-induced) (NGAL [2]): inhibited
NGAL-induced profibrotic marker (col1, col III, fibronectin, Gal3, OPN) synthesis (NGAL [4]): inhibited
Chemical Stability (Chemical stability): 103%
stability to acidic pH / digestive content (Chemical stability): fully stable
PPB (binding to plasma proteins) (human plasma protein): low
fraction unbound [6]: 0.288
SMILES: CC(=O)c1cccc(S(=O)(=O)NCc2ccccc2-n2cccn2)c1 [GPZ614741]
hepatotoxicity (toxicity for hepatocytes) ([3]; MTT up to 0.1 mM): no toxicity
Hepatotoxicity ([3]; cell wrapped over two lines: No tox up / 100 uM): No tox up
aSMA tissue content ([5]; FIG. 10 panel A): significant prevention of up regulation
GDF15 tissue content ([5]; FIG. 10 panel B): significant prevention of up regulation
CTGF tissue content ([5]; FIG. 10 panel C): significant prevention of up regulation
Col1 tissue content ([5]; FIG. 10 panel D): significant prevention of up regulation
IL6 tissue content ([5]; FIG. 11 panel A): significant prevention of up regulation
CD68 tissue content ([5]; FIG. 12 panel C): significant prevention of up regulation
CD 80 tissue content ([5]; FIG. 12 panel D): significant prevention of up regulation
CD86 tissue content ([5]; FIG. 12 panel E): significant prevention of up regulation
CD3 tissue content ([5]; FIG. 12 panels A, B): significant prevention of up regulation
